Consider 2 compounds from patent US20230101236A1, “COSMETIC COMPOSITION” (GIVAUDAN SA, priority 2020, published 2023).

This data set relates to skin microbiome. The data set can be described thus: Conversion of crocin to crocetin by the skin microbiome (in vitro). It is filed as in vitro ADME. How it is done:
Sampling of skin microbiome was performed on 7 volunteers with a sterile gauze impregnated with NaCl in 5 areas: forehead, cheek, nose, neck, forearm. All samples were combined to obtain a representative skin microbiota composition. The thus obtained microbiome was cultured in liquid medium (buffered HT medium) at 30° C. in the presence of crocin. Supernatants were collected regularly and analyzed by HPLC-MS to detect crocin and crocetin.

As to `CC(/C=C/C=C(\C)C(=O)O)=C\C=C\C=C(C)\C=C\C=C(/C)C(=O)O` [Crocetin], the “concentration, % of maximum concentration detected” value by setting is: (skin microbiome culture with crocin, 42 h) 0.7%; (skin microbiome culture with crocin, 66 h) 7.9%; (skin microbiome culture with crocin, 90 h) 30.5%; (skin microbiome culture with crocin, 162 h) 65.3%; (skin microbiome culture with crocin, 186 h) 101.3%; (skin microbiome culture with crocin, 210 h) 101.3%.

On to `CC(/C=C/C=C(\C)C(=O)O[C@@H]1O[C@H](CO[C@@H]2O[C@H](CO)[C@@H](O)[C@H](O)[C@H]2O)[C@@H](O)[C@H](O)[C@H]1O)=C\C=C\C=C(C)\C=C\C=C(/C)C(=O)O[C@@H]1O[C@H](CO[C@@H]2O[C@H](CO)[C@@H](O)[C@H](O)[C@H]2O)[C@@H](O)[C@H](O)[C@H]1O` [Crocin], for which the “time for complete transformation to crocetin” value (human) was not above 210 h. Further, the “concentration, % of maximum concentration detected” value is 100% (human, 0 h); 100% (human, 18 h); 47.5% (human, 42 h); 2.9% (human, 66 h); 0.1% (human, 90 h).
